Measured values: US8691757B2 (Bristol-Myers Squibb Company, priority 2011, dated 2014)

Assays:
[1] = system: HCV genotype 1b (Con1) replicon in HUH-7 cells; test: HCV replicon luciferase reporter assay, genotype 1b; assay type: cell-based; conditions: Hepatitis C virus, 72 h, HCV genotype 1b replicon, 3 days incubation, Renilla luciferase
From the text: An HCV replicon whole cell system was established as described by Lohmann V, Korner F, Koch J, Herian U, Theilmann L, Bartenschlager R., Science 285(5424):110-3 (1999) and modified to introduce a luciferase reporter, as first described by Krieger et al (Krieger N, Lohmann V, and Bartenschlager R, J. Virol. 75(10):4614-4624 (2001)). CDNA encoding a humanized form of the Renilla luciferase gene and a linker sequence fused directly to the 3′-end of the luciferase gene were introduced into the replicon construct using an Asc1 restriction site located in core, directly upstream of the neomycin marker gene. The adaptive mutation at position 1179 (serine to isoleucine) was also introduced (Blight K J, Kolykhalov, A A, Rice, C M, Science 290(5498):1972-1974). A stable cell line constitutively expressing this HCV replicon construct was generated by first linearizing plasmid DNAs with ScaI. RNA transcripts were synthesized in vitro using the T7 MegaScript transcription kit (Ambion, Austin, Tex.) according to manufacturer's directions. In vitro transcripts of the cDNA were transfected into the human hepatoma cell line, HUH-7. […] Resulting cell lines were characterized for positive and negative strand RNA production and protein production over time. […]
(§1) HCV replicon luciferase assays were developed to monitor the inhibitory effects of compounds described in the disclosure on HCV genotypes 1a and 1b viral replication. HUH-7 cells, constitutively expressing the HCV replicon, were grown in Dulbecco's Modified Eagle Media (DMEM) (Gibco-BRL) containing 10% Fetal calf serum (FCS) (Sigma) and 1 mg/mL G418 (Gibco-BRL). Compounds were serially diluted 3 folds in DMSO for a twenty-point titration and subsequently transferred to sterile 384-well tissue-culture treated plates (Corning cat #3571). The plates were then seeded with 50 μL of cells at a density of 3.0×10^3 cells/well in DMEM containing 4% FCS (final DMSO concentration at 0.5%). After 3 days incubation at 37° C., cells were analyzed for Renilla Luciferase activity using the EnduRen as substrate (Promega cat #E6485). The EnduRen substrate was diluted in DMEM and then added to the plates to a final concentration of 7.5 μM. The plates were incubated for 2 hrs at 37° C. and then read immediately for 30 seconds with Viewlux Imager (PerkinElmer) using a luminescence program. To assess cytotoxicity of compounds, CC50 values were generated by multiplexing the EnduRen-containing plates with Cell Titer-Blue (Promega, cat #G8082). Cell-Titer Blue (3 μL) was added to each well and incubated for 8 hrs at 37° C. The fluorescence signal from each well was read, with an excitation wavelength at 525/10 nm and an emission wavelength of 598/10 nm, using the Viewlux Imager.
(§2) The EC50 values for compounds were calculated by using a four-parameter logistic equation: y=A+((B−A)/(1+((C/x)^D))), where A and B denotes minimal and maximal % inhibition, respectively, C is the EC50, D is the hill slope and x represents compound concentration.

[2] = system: HCV genotype 1a (H77 strain) replicon in HUH-7 cells; test: HCV replicon luciferase reporter assay, genotype 1a; assay type: cell-based; conditions: Hepatitis C virus, 72 h, HCV genotype 1a replicon, 3 days incubation, Renilla luciferase
From the text: An HCV replicon whole cell system was established as described by Lohmann V, Korner F, Koch J, Herian U, Theilmann L, Bartenschlager R., Science 285(5424):110-3 (1999) and modified to introduce a luciferase reporter, as first described by Krieger et al (Krieger N, Lohmann V, and Bartenschlager R, J. Virol. 75(10):4614-4624 (2001)). CDNA encoding a humanized form of the Renilla luciferase gene and a linker sequence fused directly to the 3′-end of the luciferase gene were introduced into the replicon construct using an Asc1 restriction site located in core, directly upstream of the neomycin marker gene. The adaptive mutation at position 1179 (serine to isoleucine) was also introduced (Blight K J, Kolykhalov, A A, Rice, C M, Science 290(5498):1972-1974). A stable cell line constitutively expressing this HCV replicon construct was generated by first linearizing plasmid DNAs with ScaI. RNA transcripts were synthesized in vitro using the T7 MegaScript transcription kit (Ambion, Austin, Tex.) according to manufacturer's directions. In vitro transcripts of the cDNA were transfected into the human hepatoma cell line, HUH-7. […] Resulting cell lines were characterized for positive and negative strand RNA production and protein production over time.
A stable HCV replicon luciferase reporter cell line representing the genotype 1a H77 strain (Yanagi M, Purcell R H, Emerson S U, et al. Transcripts from a single full-length cDNA clone of hepatitis C virus are infectious when directly transfected into the liver of a chimpanzee. Proc Natl Acad Sci USA 1997; 94(16):8738-8743) was generated as described previously for the genotype 1b (Con1) replicon luciferase cell line. The replicon construct was modified by introducing mutations were introduced into the genes encoding the NS3 helicase domain (proline replaced by leucine at position 1496) and NS5A (serine to isoleucine at position 2204) to improve replication in cell culture.
as §1, §2

SMILES: COc1ccc2nc(O[C@@H]3C[C@H]4C(=O)N[C@]5(C(=O)NS(=O)(=O)C6CC6)C[C@H]5/C=C\[C@H](C)CCC[C@@H](C)[C@H](NC(=O)OC(C)(C)C)C(=O)N4C3)cnc2c1 [Compound 26, tert-butyl (2R,6S,7R,11R,13aS,14aR,16aS,Z)-14a-(cyclopropylsulfonylcarbamoyl)-2-(6-methoxyquinoxalin-2-yloxy)-7,11-dimethyl-5,16-dioxo-1,2,3,5,6,7,8,9,10,11,13a,14,14a,15,16,16a-hexadecahydrocyclopropa[e]pyrrolo[1,2-a][1,4]diazacyclopentadecin-6-ylcarbamate]
- EC50 ([1]; numeric values): 86.5 nM
- EC50 ([2]; numeric values): 215 nM

SMILES: COc1ccc2nc(O[C@@H]3C[C@H]4C(=O)N[C@]5(C(=O)NS(=O)(=O)C6CC6)C[C@H]5/C=C\[C@@H](C)CCC[C@@H](C)[C@H](NC(=O)OC(C)(C)C)C(=O)N4C3)cnc2c1 [Compound 27, tert-butyl (2R,6S,7R,11S,13aS,14aR,16aS,Z)-14a-(cyclopropylsulfonylcarbamoyl)-2-(6-methoxyquinoxalin-2-yloxy)-7,11-dimethyl-5,16-dioxo-1,2,3,5,6,7,8,9,10,11,13a,14,14a,15,16,16a-hexadecahydrocyclopropa[e]pyrrolo[1,2-a][1,4]diazacyclopentadecin-6-ylcarbamate]
- EC50 ([1]; range classes): 5.01 to 68 nM
- EC50 ([2]; range classes): 5.01 to 68 nM

SMILES: COc1ccc2ncc(O[C@@H]3C[C@H]4C(=O)N[C@]5(C(=O)NS(=O)(=O)C6CC6)C[C@H]5/C=C\[C@H](C)CCC[C@@H](C)[C@H](NC(=O)OC(C)(C)C)C(=O)N4C3)nc2c1 [Compound 28, tert-butyl (2R,6S,7R,11R,13aS,14aR,16aS,Z)-14a-(cyclopropylsulfonylcarbamoyl)-2-(7-methoxyquinoxalin-2-yloxy)-7,11-dimethyl-5,16-dioxo-1,2,3,5,6,7,8,9,10,11,13a,14,14a,15,16,16a-hexadecahydrocyclopropa[e]pyrrolo[1,2-a][1,4]diazacyclopentadecin-6-ylcarbamate]
- EC50 ([1]; range classes): 1.01 to 2 nM
- EC50 ([2]; range classes): 5.01 to 68 nM

SMILES: COc1ccc2ncc(O[C@@H]3C[C@H]4C(=O)N[C@]5(C(=O)NS(=O)(=O)C6CC6)C[C@H]5/C=C\[C@@H](C)CCC[C@@H](C)[C@H](NC(=O)OC(C)(C)C)C(=O)N4C3)nc2c1 [Compound 29, tert-butyl (2R,6S,7R,11S,13aS,14aR,16aS,Z)-14a-(cyclopropylsulfonylcarbamoyl)-2-(7-methoxyquinoxalin-2-yloxy)-7,11-dimethyl-5,16-dioxo-1,2,3,5,6,7,8,9,10,11,13a,14,14a,15,16,16a-hexadecahydrocyclopropa[e]pyrrolo[1,2-a][1,4]diazacyclopentadecin-6-ylcarbamate]
- EC50 ([1]; range classes): 5.01 to 68 nM
- EC50 ([2]; range classes): 5.01 to 68 nM

SMILES: COc1ccc2ncc(O[C@@H]3C[C@H]4C(=O)N[C@]5(C(=O)NS(=O)(=O)C6CC6)C[C@H]5/C=C\[C@H](C)CCC[C@@H](C)[C@H](NC(=O)OC(C)(C)C(F)(F)F)C(=O)N4C3)nc2c1 [Compound 30, 1,1,1-trifluoro-2-methylpropan-2-yl (2R,6S,7R,11R,13aS,14aR,16aS,Z)-14a-(cyclopropylsulfonylcarbamoyl)-2-(7-methoxyquinoxalin-2-yloxy)-7,11-dimethyl-5,16-dioxo-1,2,3,5,6,7,8,9,10,11,13a,14,14a,15,16,16a-hexadecahydrocyclopropa[e]pyrrolo[1,2-a][1,4]diazacyclopentadecin-6-ylcarbamate]
- EC50 ([1]; range classes): 0.2 to 1 nM
- EC50 ([2]; range classes): 2.01 to 5 nM

SMILES: COc1ccc2ncc(O[C@@H]3C[C@H]4C(=O)N[C@]5(C(=O)NS(=O)(=O)C6CC6)C[C@H]5/C=C\[C@@H](C)CCC[C@@H](C)[C@H](NC(=O)OC(C)(C)C(F)(F)F)C(=O)N4C3)nc2c1 [Compound 31, 1,1,1-trifluoro-2-methylpropan-2-yl (2R,6S,7R,11S,13aS,14aR,16aS,Z)-14a-(cyclopropylsulfonylcarbamoyl)-2-(7-methoxyquinoxalin-2-yloxy)-7,11-dimethyl-5,16-dioxo-1,2,3,5,6,7,8,9,10,11,13a,14,14a,15,16,16a-hexadecahydrocyclopropa[e]pyrrolo[1,2-a][1,4]diazacyclopentadecin-6-ylcarbamate]
- EC50 ([1]; range classes): 5.01 to 68 nM
- EC50 ([2]; range classes): 5.01 to 68 nM

SMILES: COc1ccc2nc(O[C@@H]3C[C@H]4C(=O)N[C@]5(C(=O)NS(=O)(=O)C6CC6)C[C@H]5/C=C\[C@H](C)CCC[C@@H](C)[C@H](NC(=O)OC(C)(C)C(F)(F)F)C(=O)N4C3)cnc2c1 [Compound 32, 1,1,1-trifluoro-2-methylpropan-2-yl (2R,6S,7R,11R,13aS,14aR,16aS,Z)-14a-(cyclopropylsulfonylcarbamoyl)-2-(6-methoxyquinoxalin-2-yloxy)-7,11-dimethyl-5,16-dioxo-1,2,3,5,6,7,8,9,10,11,13a,14,14a,15,16,16a-hexadecahydrocyclopropa[e]pyrrolo[1,2-a][1,4]diazacyclopentadecin-6-ylcarbamate]
- EC50 ([1]; range classes): 5.01 to 68 nM
- EC50 ([2]; range classes): 5.01 to 68 nM

SMILES: COc1cc2c(OC)cnc(O[C@@H]3C[C@H]4C(=O)N[C@]5(C(=O)NS(=O)(=O)C6CC6)C[C@H]5/C=C\[C@H](C)CCC[C@@H](C)[C@H](NC(=O)OC(C)(C)C(F)(F)F)C(=O)N4C3)c2cc1F [Compound 33, 1,1,1-trifluoro-2-methylpropan-2-yl (2R,6S,7R,11R,13aS,14aR,16aS,Z)-14a-(cyclopropylsulfonylcarbamoyl)-2-(7-fluoro-4,6-dimethoxyisoquinolin-1-yloxy)-7,11-dimethyl-5,16-dioxo-1,2,3,5,6,7,8,9,10,11,13a,14,14a,15,16,16a-hexadecahydrocyclopropa[e]pyrrolo[1,2-a][1,4]diazacyclopentadecin-6-ylcarbamate]
- EC50 ([1]; range classes): 1.01 to 2 nM
- EC50 ([2]; range classes): 2.01 to 5 nM

SMILES: C[C@@H]1CCC[C@@H](C)/C=C\[C@@H]2C[C@@]2(C(=O)NS(=O)(=O)C2CC2)NC(=O)[C@@H]2C[C@@H](Oc3nccc4ccccc34)CN2C(=O)[C@H]1NC(=O)OC(C)(C)C(F)(F)F [Compound 34, 1,1,1-trifluoro-2-methylpropan-2-yl (2R,6S,7R,11R,13aS,14aR,16aS,Z)-14a-(cyclopropylsulfonylcarbamoyl)-2-(isoquinolin-1-yloxy)-7,11-dimethyl-5,16-dioxo-1,2,3,5,6,7,8,9,10,11,13a,14,14a,15,16,16a-hexadecahydrocyclopropa[e]pyrrolo[1,2-a][1,4]diazacyclopentadecin-6-ylcarbamate]
- EC50 ([1]; range classes): 0.2 to 1 nM
- EC50 ([2]; range classes): 2.01 to 5 nM
